From publication PMC3292407 (The Journal of Neuroscience, 2012) come the findings set out here.

“And” between values parts separate entries of the source, which are not always exact repeats. Equal entries are not always repeated. Where two headings read alike, the source gives them in different places.

Series [1] relates to GABAARs. It is filed as cell-based, rat.
Series [2] deals with GABAARs. Format: cell-based, rat. The settings on record: flumazenil (10 and 100 μM shown), cultured neurons.
In series [3] the test system is rats. Description: Loss of Righting Reflex.
Series [4] can be described thus: Plasma EtOH concentrations. Format: in vivo, rat.
Series [5] has as its system rats. Description: Elevated-plus maze. Format: in vivo, rat. The settings on record: 48 hr withdrawal after EtOH 3 g/kg i.p. (E/W), vs V/W-group.
The subject of series [6] is rats. The series can be described thus: Pentylenetetrazol. The settings on record: 48 hr withdrawal after EtOH 3 g/kg i.p. (E/W); PTZ 42 mg/kg. Format: in vivo, rat.
For series [7], the system named is rats. Format: in vivo, rat. The conditions noted are these: 20% EtOH/water (E/water-group).
Series [8] has as its system GABAAR α4 subunit. Description: Western blot of total GABAAR α4 subunit in hippocampus 48 hr after withdrawal. Format: in vivo, rat. The settings on record: hippocampus 48 hr after EtOH 3 g/kg i.p. (E/W), compared to V/W-group. (A western blot detects proteins with antibodies after separation by electrophoresis.)
In series [9] the test system is GABAAR α4 subunit. Format: cell-based, rat. The settings on record: cultured neurons 24 hrs after EtOH 60 mM, 30 min.
For series [10], the system named is GABAARs. Format: in vivo, rat.
Setting [11] is: bath EtOH 60 mM, DGCs, naive rats.
[12] abbreviates: baseline mIPSCs, E/W: 48 hr after EtOH 5 g/kg gavage.
The mark [13] stands for this setting: baseline, E/W: 48 hr after EtOH 5 g/kg gavage.
[14] abbreviates: bath EtOH 60 mM, DGCs of V/W-group rats.

Take `O=c1c(O)c(-c2ccc(O)c(O)c2)oc2cc(O)cc(O)c12` [quercetin, reference compound]: in the series with GABAARs [1], the “Effect on EtOH-induced potentiation of Itonic and mIPSCs” value is on record as “did not change EtOH-induced potentiation”.
As for `CCOC(=O)c1ncn2c1CN(C)C(=O)c1cc(F)ccc1-2` [flumazenil, reference compound], the “Effect on DHM (1 μM) enhancement of Itonic and mIPSCs” value in the series on GABAARs [2] is listed as “inhibited the DHM enhancement on GABAAR-currents in a concentration-dependent manner”. Moreover, the “Effect on EtOH-induced LORR” value in the series on rats [3] (flumazenil 10 mg/kg co-injected with EtOH 3 g/kg (E3+F10), vs E3-group) is reported as “did not alter LORR”. Further, the LORR duration came to 56.1 ± 4.6 min with rats [3] (flumazenil 10 mg/kg with EtOH 3 g/kg and DHM 3 mg/kg (E3+D3+F10)); 29.3 ± 4.8 min with rats [3] (flumazenil 10 mg/kg with EtOH 3 g/kg and DHM 10 mg/kg (E3+D10+F10)); 0 min in the series with rats [3] (flumazenil 20 mg/kg i.p. alone (F20)); 58.2 ± 3.9 min with rats [3] (flumazenil 30 mg/kg with EtOH 3 g/kg and DHM 3 mg/kg (E3+D3+F30)); 0 min in the series with rats [3] (flumazenil 200 mg/kg i.p. alone (F200)). Moreover, in the series on rats [3] (flumazenil 20, 200 mg/kg alone), the LORR induction result is reported as “did not induce LORR”.
As to `CCO` [EtOH], the “Plasma [EtOH]” value in series [4] (30 min after EtOH 3 g/kg i.p. (E3)) amounted to 334.9 ± 37.8 mg/dL. Further, in series [4] (60 min after EtOH 3 g/kg i.p. (E3)), the “Plasma [EtOH]” value amounted to 353.7 ± 35.4 mg/dL. In addition, in [4] (EtOH 4 g/kg i.p. (E4)), the “Plasma [EtOH] at sampling time points (min) 5” value is 365.5 ± 7.7, the “Plasma [EtOH] at sampling time points (min) 30” value stood at 379.5 ± 5.9, the “Plasma [EtOH] at sampling time points (min) 60” value is reported as 372.8 ± 5.4 and the “Plasma [EtOH] at sampling time points (min) 90” value is 361.6 ± 8.2. Moreover, the “Plasma [EtOH] at sampling time points (min) 180” value in [4] (EtOH 4 g/kg i.p. (E4)) came to 324.6 ± 21.4. The “Plasma [EtOH] at sampling time points (min) 0” value in [4] (EtOH 4 g/kg i.p. (E4), 0 = 0 to 3 min) is 143.3 ± 23.4. Besides, in the series on rats [5], the “Time in open and closed arms (EPM)” value is “significantly shorter time in open arms and longer time in closed arms”. The molecule further registered a PTZ-induced seizure duration in the series with rats [6] of 6.5 ± 1.1 min. Further, the EtOH consumption in the series on rats [7] (beginning of the 4th week) came to 7.4 ± 0.6 g/kg/day. In addition, in the series on rats [7] (end of the 2nd week), the EtOH consumption was 3.9 ± 1.4 g/kg/day. In the series on GABAARs [1] (setting [11]), the Itonic was 46.9 ± 1.4 pA and 44.8 ± 2.3 pA; the “mIPSCs (area)” value is 0.64 ± 0.02 nC and 0.78 ± 0.01 nC. In addition, in the series with GABAAR α4 subunit [8], the “Total α4 protein level” value was 184.0 ± 26.0%. In addition, the “Increase in surface expression of GABAAR α4 protein” value with GABAAR α4 subunit [9] is given as 1.5 fold. Further, the “mIPSC area before acute EtOH” value in the series on GABAARs [10] (DGCs of E/W-group rats (EtOH 5 g/kg gavage, 48 hr withdrawal)) was found to be 0.70 ± 0.03 nC. Moreover, in the series on GABAARs [10] (setting [12]), the “Decay time” value came to 4.0 ± 0.4 ms, the “Frequency (HZ)” value was 11.4 ± 0.8 HZ and the “Rise time” value worked out at 0.8 ± 0.3 ms. Further, in the series with GABAARs [10] (setting [13]), the “Itonic (pA)” value came to 13.0 ± 1.0 pA, the “mIPSC amplitude (pA)” value was 38.3 ± 3.3 pA and the “mIPSC area (fC)” value stood at 698.0 ± 33.7 fC. Also, the “mIPSC area with acute EtOH” value in the series on GABAARs [10] (bath EtOH 60 mM, DGCs of E/W-group rats (EtOH 5 g/kg gavage, 48 hr withdrawal)) amounted to 1.4 ± 0.04 nC. In the series with GABAARs [10] (setting [14]), the “Itonic with acute EtOH” value stood at 62.1 ± 3.3 pA and the “mIPSC area with acute EtOH” value stood at 0.78 ± 0.05 nC. For the same molecule, the “Acute EtOH-induced LORR (tolerance)” value with rats [3] (48 hr withdrawal after single EtOH 3 g/kg i.p. (E/W)) was determined as 10.8 ± 3.8 min. In addition, in the series with rats [3] (EtOH 3 g/kg i.p. alone (E3)), the LORR duration was 73.6 ± 8.0 min and 69.0 ± 11.3 min; the LORR onset stood at 1.8 ± 0.2 min. In the series with rats [3] (EtOH 4 g/kg i.p. alone (E4)), the “LORR duration” value was 112.8 ± 8.0 min. For the same molecule, the “Additional LORR after the 30 min time point” value in the series on rats [3] (EtOH, saline injected 30 min after EtOH) was found to be 42 ± 9.1 min.
